Source: PubChem BioAssay AID1963845 (Molecular Pharmacology Branch, DTP, NCI, 2024)

Test system: 429239-143-T-J1-PDC complex spheroid viability
Assay: Anticancer human tumor 429239-143-T-J1-PDC patient-derived small cell lung carcinoma cell line growth inhibition [POLQ]
Conditions: for IC50: curve of first compound; for viability, T/C: stronger effect = lower value
How it was run: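 Complex spheroid viability model combining PDC tumour cells with endothelial (HUVEC) and MSC stromal cells. Novobiocin, ART-558 or RP6685 were tested singly and in combination with standard and investigational anticancer drugs. Each was titrated in half-log steps from near clinical Cmax, or from 10 microM where Cmax was unknown.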

[1] = second compound 0.0316 µM, first compound 0.0316 µM
[2] = second compound 0.0316 µM, first compound 0.1 µM
[3] = second compound 0.0316 µM, first compound 0.316 µM
[4] = second compound 0.0316 µM, first compound 1 µM
[5] = second compound 0.0316 µM, first compound 3.16 µM
[6] = second compound 0.0316 µM, first compound 10 µM
[7] = second compound 0.1 µM, first compound 0.0316 µM
[8] = second compound 0.1 µM, first compound 0.1 µM
[9] = second compound 0.1 µM, first compound 0.316 µM
[10] = second compound 0.1 µM, first compound 1 µM
[11] = second compound 0.1 µM, first compound 3.16 µM
[12] = second compound 0.1 µM, first compound 10 µM
[13] = second compound 0.316 µM, first compound 0.0316 µM
[14] = second compound 0.316 µM, first compound 0.1 µM
[15] = second compound 0.316 µM, first compound 0.316 µM
[16] = second compound 0.316 µM, first compound 1 µM
[17] = second compound 0.316 µM, first compound 3.16 µM
[18] = second compound 0.316 µM, first compound 10 µM
[19] = second compound 1 µM, first compound 0.0316 µM
[20] = second compound 1 µM, first compound 0.1 µM
[21] = second compound 1 µM, first compound 0.316 µM
[22] = second compound 1 µM, first compound 1 µM
[23] = second compound 1 µM, first compound 3.16 µM
[24] = second compound 1 µM, first compound 10 µM
[25] = second compound 3.16 µM, first compound 0.0316 µM
[26] = second compound 3.16 µM, first compound 0.1 µM
[27] = second compound 3.16 µM, first compound 0.316 µM
[28] = second compound 3.16 µM, first compound 1 µM
[29] = second compound 3.16 µM, first compound 3.16 µM
[30] = second compound 3.16 µM, first compound 10 µM
[31] = second compound 10 µM, first compound 0.0316 µM
[32] = second compound 10 µM, first compound 0.1 µM
[33] = second compound 10 µM, first compound 0.316 µM
[34] = second compound 10 µM, first compound 1 µM
[35] = second compound 10 µM, first compound 3.16 µM
[36] = second compound 10 µM, first compound 10 µM
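Note: luminescence signal used as surrogate measure of viable cells; spheroids exposed to compounds for seven days before readout.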
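Throughout, for viability, T/C: 100% = DMSO vehicle control viability as luminescence relative to vehicle.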

Question: `COc1cccc2c1C(=O)c1c(O)c3c(c(O)c1C2=O)CC(O)(C(=O)CO)CC3OC1CC(N)C(O)C(C)O1` (centres undefined) + Cc1cccc(N(C)C(=O)C2C(O)CCN2c2nc(C)cc(C(F)(F)F)c2C#N)c1 was tested. Which IC50 (second compound 0.0316 µM) did it give?
Answer: 56.5 nM

Question: And the IC50 (second compound 0.1 µM)?
Answer: 57.9 nM

Question: What about the IC50 (second compound 0.316 µM) of the same molecule?
Answer: 47.8 nM

Question: What about the IC50 (second compound 1 µM) of the same molecule?
Answer: 43.8 nM

Question: And the IC50 (second compound 3.16 µM)?
Answer: 46.9 nM

Question: And the IC50 (second compound 10 µM)?
Answer: 45.2 nM

Question: What about the viability, T/C [1] of the same molecule?
Answer: 83.3%

Question: And the viability, T/C [2]?
Answer: 15.2%

Question: And the viability, T/C [3]?
Answer: 12.4%

Question: And the viability, T/C [4]?
Answer: 0.22%

Question: What about the viability, T/C [5] of the same molecule?
Answer: 0.12%

Question: And the viability, T/C [6]?
Answer: 0.13%

Question: And the viability, T/C [7]?
Answer: 84.9%

Question: And the viability, T/C [8]?
Answer: 15.6%

Question: And the viability, T/C [9]?
Answer: 14.7%

Question: What about the viability, T/C [10] of the same molecule?
Answer: 0.15%

Question: And the viability, T/C [11]?
Answer: 0.11%

Question: What about the viability, T/C [12] of the same molecule?
Answer: 0.09%

Question: And the viability, T/C [13]?
Answer: 69.1%

Question: And the viability, T/C [14]?
Answer: 14.3%

Question: What about the viability, T/C [15] of the same molecule?
Answer: 11.2%

Question: And the viability, T/C [16]?
Answer: 0.17%

Question: And the viability, T/C [17]?
Answer: 0.16%

Question: What about the viability, T/C [18] of the same molecule?
Answer: 0.11%

Question: And the viability, T/C [19]?
Answer: 62.7%

Question: What about the viability, T/C [20] of the same molecule?
Answer: 16%

Question: What about the viability, T/C [21] of the same molecule?
Answer: 14.7%

Question: And the viability, T/C [22]?
Answer: 0.15%

Question: What about the viability, T/C [23] of the same molecule?
Answer: 0.13%

Question: What about the viability, T/C [24] of the same molecule?
Answer: 0.09%

Question: And the viability, T/C [25]?
Answer: 68.1%

Question: What about the viability, T/C [26] of the same molecule?
Answer: 13.6%

Question: And the viability, T/C [27]?
Answer: 12.1%

Question: And the viability, T/C [28]?
Answer: 0.14%

Question: What about the viability, T/C [29] of the same molecule?
Answer: 0.25%

Question: And the viability, T/C [30]?
Answer: 0.15%

Question: What about the viability, T/C [31] of the same molecule?
Answer: 63.8%

Question: And the viability, T/C [32]?
Answer: 17.8%

Question: And the viability, T/C [33]?
Answer: 14.5%

Question: And the viability, T/C [34]?
Answer: 0.17%

Question: What about the viability, T/C [35] of the same molecule?
Answer: 0.25%

Question: What about the viability, T/C [36] of the same molecule?
Answer: 0.2%

Question: Which IC50 (second compound 0.0316 µM) does the source give for `O=c1[nH]cc(F)c(=O)[nH]1` + Cc1cccc(N(C)C(=O)C2C(O)CCN2c2nc(C)cc(C(F)(F)F)c2C#N)c1 here?
Answer: > 10000 nM

Question: What about the IC50 (second compound 0.1 µM) of the same molecule?
Answer: 6820 nM

Question: What about the IC50 (second compound 0.316 µM) of the same molecule?
Answer: > 10000 nM

Question: What about the IC50 (second compound 1 µM) of the same molecule?
Answer: 9330 nM

Question: And the IC50 (second compound 3.16 µM)?
Answer: > 10000 nM

Question: What about the IC50 (second compound 10 µM) of the same molecule?
Answer: 9510 nM

Question: What about the viability, T/C [1] of the same molecule?
Answer: 108%

Question: And the viability, T/C [2]?
Answer: 109%

Question: And the viability, T/C [3]?
Answer: 101%

Question: What about the viability, T/C [4] of the same molecule?
Answer: 105%

Question: And the viability, T/C [5]?
Answer: 65.9%

Question: And the viability, T/C [6]?
Answer: 54.5%

Question: What about the viability, T/C [7] of the same molecule?
Answer: 106%

Question: What about the viability, T/C [8] of the same molecule?
Answer: 92.3%

Question: What about the viability, T/C [9] of the same molecule?
Answer: 104%

Question: And the viability, T/C [10]?
Answer: 91.1%

Question: What about the viability, T/C [11] of the same molecule?
Answer: 61.4%

Question: And the viability, T/C [12]?
Answer: 44.4%

Question: And the viability, T/C [13]?
Answer: 96.6%

Question: And the viability, T/C [14]?
Answer: 112%

Question: What about the viability, T/C [15] of the same molecule?
Answer: 101%

Question: And the viability, T/C [16]?
Answer: 104%

Question: What about the viability, T/C [17] of the same molecule?
Answer: 56.5%

Question: What about the viability, T/C [18] of the same molecule?
Answer: 50.8%

Question: And the viability, T/C [19]?
Answer: 105%

Question: What about the viability, T/C [20] of the same molecule?
Answer: 110%

Question: What about the viability, T/C [21] of the same molecule?
Answer: 120%

Question: What about the viability, T/C [22] of the same molecule?
Answer: 87.8%

Question: And the viability, T/C [23]?
Answer: 72.4%

Question: And the viability, T/C [24]?
Answer: 47.7%

Question: What about the viability, T/C [25] of the same molecule?
Answer: 95.9%

Question: What about the viability, T/C [26] of the same molecule?
Answer: 97.2%

Question: And the viability, T/C [27]?
Answer: 114%

Question: And the viability, T/C [28]?
Answer: 78.2%

Question: And the viability, T/C [29]?
Answer: 56.5%

Question: And the viability, T/C [30]?
Answer: 47.6%

Question: And the viability, T/C [31]?
Answer: 98.7%

Question: What about the viability, T/C [32] of the same molecule?
Answer: 93.9%

Question: And the viability, T/C [33]?
Answer: 97.5%

Question: And the viability, T/C [34]?
Answer: 83.9%

Question: And the viability, T/C [35]?
Answer: 65%

Question: And the viability, T/C [36]?
Answer: 49.2%
